From the supplement of paper PMC11451515

System: NOMO1
Assay: cell viability relative to DMSO control; higher = less cytotoxic
Details: 48 h
How it was run: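 NOMO1, SEM and P12-Ichikawa leukemia cells spent at least four passages adapting to each medium before use. They were seeded at 500 cells/well (NOMO1, SEM) or 1000 cells/well (P12-Ichikawa) in 5 μl in 1536-well plates and pin-dosed with library compounds in DMSO at 11 threefold steps from 47 μM down to 0.79 nM. After 48 h at 37°C, CellTiter-Glo One luminescence was read. Viability is reported as a percentage of the DMSO wells on each plate, with cell-free wells as background.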

[1] = HPLM + 10% dialyzed FBS, 0.000781 µM
[2] = HPLM + 10% dialyzed FBS, 0.00234 µM
[3] = HPLM + 10% dialyzed FBS, 0.00702 µM
[4] = HPLM + 10% dialyzed FBS, 0.0211 µM
[5] = HPLM + 10% dialyzed FBS, 0.0632 µM
[6] = HPLM + 10% dialyzed FBS, 0.19 µM
[7] = HPLM + 10% dialyzed FBS, 0.569 µM
[8] = HPLM + 10% dialyzed FBS, 1.71 µM
[9] = HPLM + 10% dialyzed FBS, 5.12 µM
[10] = HPLM + 10% dialyzed FBS, 15.4 µM
[11] = HPLM + 10% dialyzed FBS, 46.1 µM
[12] = RPMI 5 mM glucose + 10% FBS, 0.000781 µM
[13] = RPMI 5 mM glucose + 10% FBS, 0.00234 µM
[14] = RPMI 5 mM glucose + 10% FBS, 0.00702 µM
[15] = RPMI 5 mM glucose + 10% FBS, 0.0211 µM
[16] = RPMI 5 mM glucose + 10% FBS, 0.0632 µM
[17] = RPMI 5 mM glucose + 10% FBS, 0.19 µM
[18] = RPMI 5 mM glucose + 10% FBS, 0.569 µM
[19] = RPMI 5 mM glucose + 10% FBS, 1.71 µM
[20] = RPMI 5 mM glucose + 10% FBS, 5.12 µM
[21] = RPMI 5 mM glucose + 10% FBS, 15.4 µM
[22] = RPMI 5 mM glucose + 10% FBS, 46.1 µM
[23] = RPMI 5 mM glucose + 10% dialyzed FBS, 0.000781 µM
[24] = RPMI 5 mM glucose + 10% dialyzed FBS, 0.00234 µM
[25] = RPMI 5 mM glucose + 10% dialyzed FBS, 0.00702 µM
[26] = RPMI 5 mM glucose + 10% dialyzed FBS, 0.0211 µM
[27] = RPMI 5 mM glucose + 10% dialyzed FBS, 0.0632 µM
[28] = RPMI 5 mM glucose + 10% dialyzed FBS, 0.19 µM
[29] = RPMI 5 mM glucose + 10% dialyzed FBS, 0.569 µM
[30] = RPMI 5 mM glucose + 10% dialyzed FBS, 1.71 µM
[31] = RPMI 5 mM glucose + 10% dialyzed FBS, 5.12 µM
[32] = RPMI 5 mM glucose + 10% dialyzed FBS, 15.4 µM
[33] = RPMI 5 mM glucose + 10% dialyzed FBS, 46.1 µM

| SMILES | cell viability [1] [%] | cell viability [2] [%] | cell viability [3] [%] | cell viability [4] [%] | cell viability [5] [%] | cell viability [6] [%] | cell viability [7] [%] | cell viability [8] [%] | cell viability [9] [%] | cell viability [10] [%] | cell viability [11] [%] | cell viability [12] [%] | cell viability [13] [%] | cell viability [14] [%] | cell viability [15] [%] | cell viability [16] [%] | cell viability [17] [%] | cell viability [18] [%] | cell viability [19] [%] | cell viability [20] [%] | cell viability [21] [%] | cell viability [22] [%] | cell viability [23] [%] | cell viability [24] [%] | cell viability [25] [%] | cell viability [26] [%] | cell viability [27] [%] | cell viability [28] [%] | cell viability [29] [%] | cell viability [30] [%] | cell viability [31] [%] | cell viability [32] [%] | cell viability [33] [%] |
| --- | --- | --- | --- | --- | --- | --- | --- | --- | --- | --- | --- | --- | --- | --- | --- | --- | --- | --- | --- | --- | --- | --- | --- | --- | --- | --- | --- | --- | --- | --- | --- | --- | --- |
| Nc1nnc(-c2cccc(Cl)c2Cl)c(N)n1 | 95.9 | 89.7 | 97.6 | 33 | 107 | 113 | 112 | 98.9 | 121 | 108 | 115 | 89.2 | 86.6 | 93.5 | 23.7 | 112 | 96.5 | 88.4 | 96.1 | 102 | 95.2 | 102 | 76 | 89.2 | 94 | 43.7 | 96.2 | 93.1 | 99 | 108 | 103 | 98.6 | 99.1 |
| NC(=O)C1CCCc2c1[nH]c1ccc(Cl)cc21 (stereo not drawn) | 111 | 129 | 121 | 117 | 123 | 117 | 105 | 87.6 | 57.4 | 24.2 | 7.26 | 117 | 121 | 123 | 105 | 105 | 123 | 115 | 109 | 81.4 | 21.4 | 9.96 | 107 | 121 | 111 | 129 | 119 | 116 | 110 | 116 | 85.5 | 24.3 | 12 |
| CN[C@@H](C)C(=O)N[C@H]1CN(C(=O)CC(C)C)CC[C@H]2CC[C@@H](C(=O)NC(c3ccccc3)c3ccccc3)N2C1=O | 96.2 | 118 | 112 | 119 | 82.9 | 85.2 | 74 | 54.5 | 17.4 | 13.9 | 11.3 | 102 | 105 | 104 | 100 | 96.9 | 91.6 | 95.8 | 37 | 10.6 | 10.2 | 6.19 | 85.3 | 98.6 | 92.6 | 94.1 | 121 | 91.8 | 97.1 | 90.3 | 17.7 | 13.9 | 9.5 |
| COC[C@H](c1ccc(C(F)(F)F)cc1)N1CCN(C2(C)CCN(C(=O)c3c(C)ncnc3C)CC2)C[C@H]1C.O=C(O)/C=C\C(=O)O | 85.7 | 106 | 106 | 107 | 114 | 99.8 | 111 | 70.7 | 63.5 | 62.2 | 49.9 | 87.9 | 95.7 | 101 | 97.5 | 93.8 | 103 | 91 | 83.8 | 65.1 | 56.3 | 62.8 | 83.9 | 108 | 92 | 104 | 99.8 | 105 | 101 | 91.8 | 75 | 50.9 | 51.7 |
| CN1CCC[C@@H]1CCO[C@](C)(c1ccccc1)c1ccc(Cl)cc1 | 96 | 112 | 95.7 | 102 | 112 | 109 | 119 | 107 | 110 | 112 | 95.2 | 100 | 105 | 101 | 110 | 107 | 105 | 100 | 109 | 114 | 115 | 103 | 93.3 | 112 | 105 | 97.2 | 117 | 108 | 104 | 102 | 104 | 112 | 87.8 |
| O=C(Nc1ncc(-c2cc(C(F)F)nn2-c2c(Cl)cccc2Cl)s1)C1CC1 | 120 | 107 | 120 | 117 | 132 | 138 | 137 | 99.1 | 44.4 | 62.8 | 49 |  |  |  |  |  |  |  |  |  |  |  |  |  |  |  |  |  |  |  |  |  |  |
| CN1CCCC(CC1)N2\N=C(CC3=CC=C(Cl)C=C3)/C4=C(C=CC=C4)C2=O (stereo not drawn) | 101 | 108 | 109 | 122 | 127 | 125 | 112 | 120 | 109 | 65.7 | 48.1 | 102 | 107 | 120 | 109 | 109 | 112 | 108 | 114 | 107 | 94.2 | 55.5 | 117 | 118 | 107 | 110 | 125 | 128 | 121 | 109 | 112 | 106 | 57.1 |
| ClC1=CC\2=C(OC3=C(C=CC=C3)\N=C2N4CCNCC4)C=C1 | 106 | 111 | 106 | 94.5 | 105 | 103 | 118 | 91.1 | 91.7 | 83.3 | 90.7 | 87 | 90.1 | 95.9 | 94.8 | 88.7 | 101 | 100 | 87.7 | 86.5 | 83.7 | 84 | 101 | 84 | 94.3 | 91.1 | 92.1 | 90.7 | 93.3 | 90.6 | 90.7 | 88.4 | 91.1 |
| CN1CCN2c3ncccc3Cc3ccccc3C2C1 (stereo not drawn) | 121 | 112 | 141 | 118 | 138 | 114 | 123 | 135 | 33.4 | 98.9 | 108 | 101 | 105 | 110 | 112 | 103 | 103 | 116 | 110 | 29.5 | 98.8 | 112 |  |  |  |  |  |  |  |  |  |  |  |
| CCN(C(=O)C/1=C(O)/C2=C(C=CC=C2Cl)N(C)C1=O)C3=CC=CC=C3 | 95 | 106 | 97.6 | 99.3 | 87.4 | 84 | 96.6 | 34.9 | 12.5 | 3.29 | 3.67 | 80.5 | 88.8 | 93.4 | 93.8 | 96 | 81 | 90.6 | 43.7 | 15.8 | 2.47 | 2.24 | 96.2 | 89 | 94 | 97.2 | 103 | 83.8 | 91.9 | 53.5 | 22 | 2.48 | 2.14 |
| CC[C@H](C)C(=O)O[C@H]1C[C@H](O)\C=C2\C=C/[C@H](C)[C@H](CC[C@@H](O)C[C@@H](O)CC(O)=O)[C@@H]12 | 123 | 116 | 118 | 119 | 125 | 123 | 110 | 101 | 103 | 104 | 84.1 | 114 | 111 | 118 | 106 | 117 | 126 | 116 | 116 | 104 | 105 | 102 | 105 | 110 | 117 | 104 | 101 | 110 | 112 | 101 | 103 | 107 | 99 |
| COCCOc1nc(-c2ccc(Cl)c(Cl)c2)n(-c2ccc(NC(=O)CCl)cc2)n1 | 92.5 | 113 | 110 | 114 | 113 | 115 | 96.6 | 110 | 87.2 | 85 | 107 | 78.3 | 86.9 | 84.4 | 82.7 | 85 | 87.6 | 80.7 | 84.9 | 91.3 | 92.6 | 86.7 | 82.7 | 92.1 | 93.5 | 83.7 | 97.4 | 87.5 | 96.9 | 93.9 | 86.4 | 79.7 | 104 |
| CC[C@@]1(O)C(=O)OCC/2=C1/C=C3\N(CC4=CC5=CC(=CC=C5N=C34)O)C2=O |  |  |  |  |  |  |  |  |  |  |  | 116 | 123 | 133 | 107 | 113 | 33.3 | 23.8 | 22.6 | 18.6 | 22.8 | 13.4 | 111 | 124 | 117 | 117 | 121 | 40.4 | 23.8 | 25.8 | 24.5 | 26.4 | 9.6 |
| CC(/C=C/C(=O)NO)=C\[C@@H](C)C(=O)c1ccc(N(C)C)cc1 | 112 | 104 | 107 | 104 | 134 | 122 | 108 | 57 | 5.04 | 4.16 | 2.85 | 89.8 | 100 | 109 | 98.8 | 93.9 | 109 | 89.2 | 59.5 | 5.72 | 3.5 | 2.44 | 111 | 120 | 122 | 114 | 108 | 115 | 95.1 | 65 | 5.26 | 5 | 2.94 |
| CC1(C)CNc2cc(NC(=O)c3cccnc3NCc3ccncc3)ccc21 | 131 | 118 | 112 | 137 | 108 | 105 | 112 | 113 | 109 | 94.6 | 91.8 | 115 | 119 | 134 | 124 | 120 | 118 | 124 | 120 | 103 | 120 | 118 | 116 | 110 | 120 | 112 | 107 | 96.3 | 114 | 115 | 113 | 105 | 115 |
| Nc1cccc2c1CN([C@H]1CCC(=O)NC1=O)C2=O |  |  |  |  |  |  |  |  |  |  |  | 125 | 118 | 124 | 123 | 112 | 114 | 98.3 | 105 | 99.7 | 82.1 | 112 | 101 | 111 | 120 | 104 | 114 | 108 | 107 | 109 | 103 | 88.4 | 107 |
